For orientation: Ki means the equilibrium dissociation constant of an inhibitor or competing ligand from its target. Low readings indicate higher affinity, high ones lower affinity. For orientation: EC50 means the midpoint of the concentration-response curve. The term Emax denotes the maximal effect, on the per cent scale that the assay sets.

T2 sequence (P04757 26-499): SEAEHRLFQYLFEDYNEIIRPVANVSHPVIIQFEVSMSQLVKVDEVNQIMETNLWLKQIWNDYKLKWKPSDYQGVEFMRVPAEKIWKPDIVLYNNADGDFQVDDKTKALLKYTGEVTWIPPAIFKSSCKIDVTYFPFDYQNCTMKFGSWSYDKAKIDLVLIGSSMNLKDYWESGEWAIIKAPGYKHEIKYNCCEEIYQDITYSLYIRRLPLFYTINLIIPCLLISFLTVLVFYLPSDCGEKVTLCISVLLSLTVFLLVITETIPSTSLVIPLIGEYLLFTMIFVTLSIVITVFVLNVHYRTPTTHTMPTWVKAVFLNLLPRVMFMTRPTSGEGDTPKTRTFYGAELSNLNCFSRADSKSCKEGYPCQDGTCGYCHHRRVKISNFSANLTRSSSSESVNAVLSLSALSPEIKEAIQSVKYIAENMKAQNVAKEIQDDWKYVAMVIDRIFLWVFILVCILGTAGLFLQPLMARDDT
T2 sequence (P12392 21-495): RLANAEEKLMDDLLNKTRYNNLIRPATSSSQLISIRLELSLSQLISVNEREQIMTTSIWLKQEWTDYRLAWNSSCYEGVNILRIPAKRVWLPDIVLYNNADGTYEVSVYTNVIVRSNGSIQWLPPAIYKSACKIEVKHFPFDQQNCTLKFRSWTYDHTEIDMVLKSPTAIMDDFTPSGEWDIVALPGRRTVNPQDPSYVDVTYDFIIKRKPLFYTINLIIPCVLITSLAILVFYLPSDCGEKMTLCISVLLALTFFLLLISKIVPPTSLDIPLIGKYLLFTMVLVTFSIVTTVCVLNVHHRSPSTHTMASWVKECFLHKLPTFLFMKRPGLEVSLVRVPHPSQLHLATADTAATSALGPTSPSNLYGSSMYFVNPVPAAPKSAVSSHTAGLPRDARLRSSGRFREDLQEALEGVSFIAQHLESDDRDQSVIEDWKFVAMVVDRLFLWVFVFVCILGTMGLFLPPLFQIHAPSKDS

One assay addresses nicotinic receptors. The experiment in a line: Binding of compounds to relevant receptor sites (inhibition of L-[^3 H]nicotine binding, rat brain membranes). To be noted: inhibition of L-[^3 H]nicotine (10 nM) binding. Details: species or system rat (Sprague-Dawley). As for the experimental part:
Rats (Sprague-Dawley) were maintained on a 12 hour light/dark cycle and were allowed free access to water and food supplied by Wayne Lab Blox, Madison, Wis. Animals used in the present studies weighed 200 to 250 g. Brain membrane preparations were obtained from brain tissue of either males or females.
Rats were killed by decapitation following anesthesia with 70% CO2. Brains were removed and placed on an ice-cold platform.
The incubation buffer was Krebs-Ringers HEPES containing 200 mM TRIS buffer, pH 7.5. The binding reaction was terminated by filtration of the protein containing bound ligand onto glass fiber filters (Micro Filtration Systems) that had been soaked in buffer containing 0.5 percent polyethyleneimine. Filtration vacuum was -50 to -100 torr. Each filter was washed five times with 3 ml of ice-cold buffer. […] Nonspecific binding was determined by inclusion of 10 uM nonradioactive nicotine in the incubations.
The inhibition of L-[^3 H]nicotine binding by test compounds was determined by including one of eight different concentrations of the test compound in the incubation.
On to `CNC(C)C/C=C/c1cccnc1` (centres unmarked) [Sample No. 2, (E)-N-methyl-5-(3-pyridinyl)-4-penten-2-amine], for which the affinity corresponds to a Ki of 82 nM.

`CCOc1cncc(/C=C/CCNC)c1` [Sample No. 1, (E)-N-methyl-4-[3-(5-ethoxypyridin)yl]-3-buten-1-amine] gave a Ki of 9 nM.

Turning to `CNCC/C=C/c1cncc(OC)c1` [Sample No. 3, (E)-N-methyl-4-[3-(5-methoxypyridin)yl]-3-buten-1-amine], affinity was put at a Ki of 7 nM.

In another assay the target is CNS nicotinic receptors (thalamic synaptosomes). The assay can be described thus: Determination of ion flux from thalamic synaptosomes (^86 Rb+ efflux; receptor activation). The assay is classed as biochemical, rat.
Conditions: not given
As to the method:
Determination of ion flux from thalamic synaptosomes
Rat brains were dissected and midbrain (thalamus and mesencephalon) removed. The midbrain was then placed into a tube on ice, homogenized, and centrifuged at 2800 rpm for 10 minutes. The supernatant was collected and centrifuged for another 20 minutes at 9650 rpm The resulting pellet was resuspended by trituration in 700 ul ice cold perfusion buffer. Synaptosomes were then loaded with ^86 Rb+ Ion efflux was determined using the methods of Marks et al., J. Pharmacol. Exp. Ther., Vol. 264, pp. 427-436 (1993). Total efflux was determined by subtraction of basal release from release at stimulation (total peak release). The ratio of the peak to baseline (Rp) was calculated for each concentration. A tetramethylammonium control (i.e., a full agonist to the receptor of interest) is used in each assay to compare each agonist's ability to stimulate rubidium efflux to the control. Emax values are reported as a percent of Emax for tetramethylammonium.
With `CNC(C)C/C=C/c1cccnc1` (centres unmarked) [Sample No. 2, (E)-N-methyl-5-(3-pyridinyl)-4-penten-2-amine], the half-maximal effective concentration (EC50) is 1700 nM.

`CNCC/C=C/c1cccnc1` [Sample No. C-2, (E)-metanicotine, reference compound]: the EC50 amounted to 732 nM.

With `CCOc1cncc(/C=C/CCNC)c1` [Sample No. 1, (E)-N-methyl-4-[3-(5-ethoxypyridin)yl]-3-buten-1-amine], the response was half-maximal at 269 nM (EC50).

In turn, `CNCC/C=C/c1cncc(OC)c1` [Sample No. 3, (E)-N-methyl-4-[3-(5-methoxypyridin)yl]-3-buten-1-amine] yielded a concentration for a half-maximal effect (EC50) of 470 nM.

Staying with this assay, now noted: percent of Emax for tetramethylammonium.
Consider `CNC(C)C/C=C/c1cccnc1` (centres unmarked) [Sample No. 2, (E)-N-methyl-5-(3-pyridinyl)-4-penten-2-amine], for which the “Receptor Activation Emax” value stood at 35%.

On to `CN1CCC[C@H]1c1cccnc1` [Sample No. C-1, (S)--(-)--nicotine, reference compound], for which the “Receptor Activation Emax” value worked out at 87%.

For `CNCC/C=C/c1cccnc1` [Sample No. C-2, (E)-metanicotine, reference compound], the “Receptor Activation Emax” value turned out to be 79%.

In the case of `CCOc1cncc(/C=C/CCNC)c1` [Sample No. 1, (E)-N-methyl-4-[3-(5-ethoxypyridin)yl]-3-buten-1-amine], the “Receptor Activation Emax” value is recorded as 67%.

`CNCC/C=C/c1cncc(OC)c1` [Sample No. 3, (E)-N-methyl-4-[3-(5-methoxypyridin)yl]-3-buten-1-amine]: the “Receptor Activation Emax” value was found to be 62%.

In the next assay the test system is dopamine release from striatal synaptosomes. The assay can be described thus: Determination of dopamine release (striatal synaptosomes). The assay is classed as biochemical, rat (Sprague-Dawley). Particulars: rat striatal synaptosomes. As for the experimental part:
Determination of Dopamine Release
Dopamine release was measured by preparing synaptosomes from the striatal area of rat brain obtained from Sprague-Dawley rats generally according to the procedures set forth by Nagy et al. J. Neurochem., Vol. 43, pp. 1114-1123 (1984). Striata from 4 rats were homogenized in 2 ml of 0.32M sucrose buffered with 5 mM HEPES (pH 7.5), using a glass-Teflon tissue grinder. The homogenate was diluted to 5 ml with additional homogenization solution and centrifuged at 1,000 ×g for 10 min. This procedure was repeated on the new pellet and the resulting supernatant was centrifuged at 12,000 ×g for 20 min. A 3 layer discontinuous Percoll gradient consisting of 16 percent, 10 percent and 7.5 percent Percoil in HEPES-buffered sucrose was made with the final pellet dispersed in the top layer. After centrifugation at 15,000 ×g for 20 min., the synaptosomes were recovered above the 16 percent layer with a Pasteur pipette, diluted with 8 ml of perfusion buffer (128 mM NaCl, 2.4 mM KCl, 3.2 mM CaCl2, 1.2 KH2 PO4, 1.2 mM MgSO4, 25 mM HEPES pH 7.4, 10 mM dextrose, 1 mM ascorbate, 0.01 mM pargyline), and centrifuged at 15,000 ×g for 20 min. The new pellet was collected and re-suspended in perfusion buffer. The synaptosome suspension was incubated for 10 min. at 37 ° C. [^3 H]-Dopamine (Amersham, 40-60 Ci/mmol) was added to the suspension to give a final concentration of 0.1 uM, and the suspension was incubated for another 5 min. Using this method, 30 to 90 percent of the dopamine was taken up into the synaptosomes, as determined by scintillation counting following filtration through glass fiber filters soaked with 0.5 percent polyethyleneimine. A continuous perfusion system was used to monitor release following exposure to each ligand. Synaptosomes were loaded onto glass fiber filters (Gelman type A/E). Perfusion buffer was dripped onto the filters (0.2-0.3 ml/min.) and pulled through the filters with a peristaltic pump. Synaptosomes were washed with perfusion buffer for a minimum of 20 min. before addition of the ligand. After the addition of 0.2 ml of a solution containing various concentrations of ligand, the perfusate was collected into scintillation vials at 1 min. intervals and the dopamine released was quantified by scintillation counting. Peaks of radioactivity released above background were summed and the average basal release during that time was subtracted from the total. Release was expressed as a percentage of release obtained with an equal concentration of(S)--(-)--nicotine.
`CNC(C)C/C=C/c1cccnc1` (centres unmarked) [Sample No. 2, (E)-N-methyl-5-(3-pyridinyl)-4-penten-2-amine]: the midpoint of the response, the EC50, lay at 21400 nM.

Take `CN1CCC[C@H]1c1cccnc1` [Sample No. C-1, (S)--(-)--nicotine, reference compound]: the 50% effective concentration (EC50) is 100 nM.

`CNCC/C=C/c1cccnc1` [Sample No. C-2, (E)-metanicotine, reference compound] showed a concentration for a half-maximal effect (EC50) of 1160 nM.

On to `CCOc1cncc(/C=C/CCNC)c1` [Sample No. 1, (E)-N-methyl-4-[3-(5-ethoxypyridin)yl]-3-buten-1-amine], for which the concentration giving a half-maximal response (EC50) came out at 287 nM.

As to `CNCC/C=C/c1cncc(OC)c1` [Sample No. 3, (E)-N-methyl-4-[3-(5-methoxypyridin)yl]-3-buten-1-amine], the response was half-maximal at 2340 nM (EC50).

Still in this assay, the particulars now being: rat striatal synaptosomes; percentage of release obtained with (S)-(-)-nicotine.
On to `CNC(C)C/C=C/c1cccnc1` (centres unmarked) [Sample No. 2, (E)-N-methyl-5-(3-pyridinyl)-4-penten-2-amine], for which the “Dopamine Release Emax” value turned out to be 182%.

Turning to `CN1CCC[C@H]1c1cccnc1` [Sample No. C-1, (S)--(-)--nicotine, reference compound], the “Dopamine Release Emax” value amounted to 100%.

For the compound `CNCC/C=C/c1cccnc1` [Sample No. C-2, (E)-metanicotine, reference compound], the “Dopamine Release Emax” value is 81%.

Turning to `CCOc1cncc(/C=C/CCNC)c1` [Sample No. 1, (E)-N-methyl-4-[3-(5-ethoxypyridin)yl]-3-buten-1-amine], the “Dopamine Release Emax” value is 124%.

As to `CNCC/C=C/c1cncc(OC)c1` [Sample No. 3, (E)-N-methyl-4-[3-(5-methoxypyridin)yl]-3-buten-1-amine], the “Dopamine Release Emax” value amounted to 106%.

For the next assay, the target named is T1, muscle-like nicotinic receptors (TE671/RD) (Homo sapiens, UniProt P02708+P07510+Q07001).
T1 construct: these cells express muscle-like nicotinic receptors; endogenous in cells; host or cells: TE671/RD (human embryonal rhabdomyosarcoma)
T1 sequence (Q07001 22-517): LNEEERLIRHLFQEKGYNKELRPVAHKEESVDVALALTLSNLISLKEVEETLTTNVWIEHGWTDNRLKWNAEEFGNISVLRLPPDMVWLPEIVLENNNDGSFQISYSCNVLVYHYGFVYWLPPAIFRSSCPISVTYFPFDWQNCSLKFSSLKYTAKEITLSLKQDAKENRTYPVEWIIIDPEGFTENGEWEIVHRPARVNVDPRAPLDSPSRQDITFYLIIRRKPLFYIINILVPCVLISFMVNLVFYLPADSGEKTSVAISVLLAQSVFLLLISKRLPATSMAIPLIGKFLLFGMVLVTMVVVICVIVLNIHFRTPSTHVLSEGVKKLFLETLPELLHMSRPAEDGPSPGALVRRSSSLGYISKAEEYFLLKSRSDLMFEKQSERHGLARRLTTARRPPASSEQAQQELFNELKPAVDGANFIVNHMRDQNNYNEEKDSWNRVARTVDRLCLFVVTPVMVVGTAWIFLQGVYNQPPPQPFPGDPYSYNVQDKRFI
T1 sequence (P07510 23-517): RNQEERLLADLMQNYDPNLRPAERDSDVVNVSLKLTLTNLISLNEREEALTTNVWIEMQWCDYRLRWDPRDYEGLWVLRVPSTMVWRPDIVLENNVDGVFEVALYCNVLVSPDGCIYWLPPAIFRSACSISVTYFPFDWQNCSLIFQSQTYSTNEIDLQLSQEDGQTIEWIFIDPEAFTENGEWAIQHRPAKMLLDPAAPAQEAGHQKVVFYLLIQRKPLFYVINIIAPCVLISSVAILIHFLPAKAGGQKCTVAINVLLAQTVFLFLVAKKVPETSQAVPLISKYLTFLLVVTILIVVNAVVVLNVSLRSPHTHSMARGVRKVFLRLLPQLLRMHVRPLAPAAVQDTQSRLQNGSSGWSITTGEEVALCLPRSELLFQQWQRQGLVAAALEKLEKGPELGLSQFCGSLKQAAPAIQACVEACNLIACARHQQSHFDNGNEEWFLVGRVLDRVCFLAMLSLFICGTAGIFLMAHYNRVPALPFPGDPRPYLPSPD
T1 sequence (P11230 24-501, further chain): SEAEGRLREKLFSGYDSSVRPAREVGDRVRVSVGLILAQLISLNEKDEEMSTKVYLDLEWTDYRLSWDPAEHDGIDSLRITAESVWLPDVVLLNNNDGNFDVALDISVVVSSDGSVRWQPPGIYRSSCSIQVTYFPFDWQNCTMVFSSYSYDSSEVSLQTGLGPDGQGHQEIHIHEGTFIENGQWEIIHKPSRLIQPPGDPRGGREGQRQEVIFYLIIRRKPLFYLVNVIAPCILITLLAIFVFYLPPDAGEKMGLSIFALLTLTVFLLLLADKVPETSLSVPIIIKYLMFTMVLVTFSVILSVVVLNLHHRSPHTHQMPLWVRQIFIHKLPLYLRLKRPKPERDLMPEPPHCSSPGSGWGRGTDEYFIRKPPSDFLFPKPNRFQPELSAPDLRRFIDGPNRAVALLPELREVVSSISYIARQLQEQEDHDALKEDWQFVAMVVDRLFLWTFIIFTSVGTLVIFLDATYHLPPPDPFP
T1 sequence (P02708 21-457): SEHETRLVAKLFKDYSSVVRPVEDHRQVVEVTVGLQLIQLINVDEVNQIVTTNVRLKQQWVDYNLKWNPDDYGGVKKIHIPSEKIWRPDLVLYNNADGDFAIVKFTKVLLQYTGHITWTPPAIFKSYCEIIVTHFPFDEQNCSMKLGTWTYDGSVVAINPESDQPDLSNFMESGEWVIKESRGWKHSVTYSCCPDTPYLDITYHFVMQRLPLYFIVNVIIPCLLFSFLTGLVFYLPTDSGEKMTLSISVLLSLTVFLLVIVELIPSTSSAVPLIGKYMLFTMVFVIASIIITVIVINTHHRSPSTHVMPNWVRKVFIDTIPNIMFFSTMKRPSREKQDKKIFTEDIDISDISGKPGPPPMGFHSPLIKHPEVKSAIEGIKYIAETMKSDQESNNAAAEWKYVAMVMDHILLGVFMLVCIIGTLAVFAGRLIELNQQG
The assay can be described thus: cell-based. Particulars: ^86 Rb^+ efflux, read-out: Muscle Effect EC50. The text has this: Determination of Interaction with Muscle
Human muscle activation was established on the human clonal line TE671/RD which is derived from an embryonal rhabdomyosarcoma (Stratton et al., Carcinogen, Vol. 10, pp. 899-905 (1989)). As evidenced through pharmacological (Lukas, J. Pharmacol. Exp. Ther., Vol. 251, pp. 175-182 (1989)), electrophysiological (Oswald et al., Neurosci. Lett., Vol. 96, pp. 207-212 (1989)), and molecular biological studies (Luther et al., J. Neurosci., Vol. 9, pp. 1082-1096 (1989)) these cells express muscle-like nicotinic receptors. Nicotinic acetylcholine receptor (nAChR) function was assayed using ^86 Rb^+ efflux according to a method described by Lukas et al., Anal. Biochem., Vol. 175, pp. 212-218 (1988). Dose-response curves were plotted and the concentration resulting in half maximal activation of specific ion flux through nicotinic receptors determined for human muscle and rat ganglionic preparations (EC50).
Nicotinic acetylcholine receptor (nAChR) function was assayed using ^86 Rb^+ efflux according to a method described by Lukas et al., Anal. Biochem., Vol. 175, pp. 212-218 (1.988). […] The medium was removed and ^86 Rb^+ was quantitated using Cerenkov detection (see Lukas et al., Anal. Biochem., Vol. 175, pp. 212-218 (1988)). Specific ion efflux was determined as the difference in isotope efflux between total and non-specific efflux samples. […]
In the case of `CN1CCC[C@H]1c1cccnc1` [Sample No. C-1, (S)--(-)--nicotine, reference compound], the 50% effective concentration (EC50) was determined as 80000 nM.

Another assay has as its target T2, ganglionic-type neuronal nicotinic receptors (PC12) (Rattus norvegicus, UniProt P04757+P12392).
T2 construct: Ganglionic effects were established on the rat pheochromocytoma clonal line PC12; endogenous in cells; host or cells: PC12 (rat pheochromocytoma)
The assay can be described thus: cell-based. To be noted: PC12, ^86 Rb^+ efflux; percentage of maximal activation induced by (S)-(-)-nicotine. The text has this:
Determination of Interaction with Ganglia
Ganglionic effects were established on the rat pheochromocytoma clonal line PC12, which is a continuous clonal cell line of neural crest origin derived from a tumor of the rat adrenal medulla expressing ganglionic-typeneuronal nicotinic receptors (see Whiting et al., Nature, Vol. 327, pp. 515-518 (1987); Lukas, J. Pharmacol. Exp. Ther., Vol. 251, pp. 175-182 (1989); Whiting et al., Mol. Brain Res., Vol. 10, pp. 61-70 (1990)). Discussion concerning the heterogeneity of nicotinic receptors subtypes is set forth in Lukas et al. Internatl. Review Neurobiol., Vol. 34, pp. 25-130 (1992). Acetylcholine nicotinic receptors expressed in rat ganglia share a very high degree of homology with their human counterparts. See, Fomasari et al., Neurosci. Lett., Vol. 111, pp. 351-356 (1990) and Chini et al., Proc. Natl. Acad. Sci. USA, Vol. 89, pp. 1572-1576 (1992 ). Both clonal cell lines described above were maintained in proliferative growth phase according to routine protocols (Bencherif et al., Mol. Cell, Neurosci., Vol. 2, pp. 52-65, (1991 ) and Bencheft et al., J. Pharmacol. Exp. Ther., Vol. 257, pp. 946-953 (1991)). Intact cells on dishes were used for functional studies. Routinely, sample aliquots were reserved for determination of protein concentration using the method of Bradford, Anal. Biochem., Vol. 72, pp. 248-254 (1976) with bovine serum albumin as the standard.
Nicotinic acetylcholine receptor (nAChR) function was assayed using ^86 Rb^+ efflux according to a method described by Lukas et al., Anal. Biochem., Vol. 175, pp. 212-218 (1.988). […] The medium was removed and ^86 Rb^+ was quantitated using Cerenkov detection (see Lukas et al., Anal. Biochem., Vol. 175, pp. 212-218 (1988)). Specific ion efflux was determined as the difference in isotope efflux between total and non-specific efflux samples. Dose-response curves were plotted and the concentration resulting in half maximal activation of specific ion flux through nicotinic receptors determined for human muscle and rat ganglionic preparations (EC50).
In the case of `CNC(C)C/C=C/c1cccnc1` (centres unmarked) [Sample No. 2, (E)-N-methyl-5-(3-pyridinyl)-4-penten-2-amine], the “Ganglion Effect Emax” value came out at 6%.

For the compound `CNCC/C=C/c1cncc(OC)c1` [Sample No. 3, (E)-N-methyl-4-[3-(5-methoxypyridin)yl]-3-buten-1-amine], the “Ganglion Effect Emax” value came out at 0%.

The same assay, now with this note: PC-12; PC12, ^86 Rb^+ efflux; percentage of maximal activation induced by (S)-(-)-nicotine; read-out: Ganglion Effect Emax.
Take `CCOc1cncc(/C=C/CCNC)c1` [Sample No. 1, (E)-N-methyl-4-[3-(5-ethoxypyridin)yl]-3-buten-1-amine]: the Emax came to 0%.

The record behind these values is patent US5616716A, “(3-(5-ethoxypyridin)yl)-alkenyl 1 amine compounds” (priority 1996, dated 1997).
